In ChEMBL document CHEMBL4177730, “Rational modification of semaxanib and sunitinib for developing a tumor growth inhibitor targeting ATP binding site of tyrosine kinase” (2018):
Activity calls are given as the source filed them.

What was measured:
Type in all cases: functional, cell-based
HOP-62 = assay: Growth inhibition of human HOP62 cells at 10 uM after 48 hrs by sulforhodamine B assay
HCC 2998 = assay: Growth inhibition of human HCC2998 cells at 10 uM after 48 hrs by sulforhodamine B assay
UO-31 = assay: Growth inhibition of human UO31 cells at 10 uM after 48 hrs by sulforhodamine B assay
COLO 205 = assay: Growth inhibition of human COLO205 cells at 10 uM after 48 hrs by sulforhodamine B assay
SF-295 = assay: Growth inhibition of human SF295 cells at 10 uM after 48 hrs by sulforhodamine B assay
SF-539 = assay: Growth inhibition of human SF539 cells at 10 uM after 48 hrs by sulforhodamine B assay
SF-268 = assay: Growth inhibition of human SF268 cells at 10 uM after 48 hrs by sulforhodamine B assay
SK-MEL-2 = assay: Growth inhibition of human SK-MEL-2 cells at 10 uM after 48 hrs by sulforhodamine B assay
BT-549 = assay: Growth inhibition of human BT549 cells at 10 uM after 48 hrs by sulforhodamine B assay
NCI-H322M = assay: Growth inhibition of human NCI-H322M cells at 10 uM after 48 hrs by sulforhodamine B assay
HCT-15 = assay: Growth inhibition of human HCT15 cells at 10 uM after 48 hrs by sulforhodamine B assay
T47D = assay: Growth inhibition of human T47D cells at 10 uM after 48 hrs by sulforhodamine B assay
MDA-MB-468 = assay: Growth inhibition of human MDA-MB-468 cells at 10 uM after 48 hrs by sulforhodamine B assay
MDA-MB-435 = assay: Growth inhibition of human MDA-MB-435 cells at 10 uM after 48 hrs by sulforhodamine B assay
PC-3 = assay: Growth inhibition of human PC3 cells at 10 uM after 48 hrs by sulforhodamine B assay
NCI/ADR-RES = assay: Growth inhibition of human NCI-ADR-RES cells at 10 uM after 48 hrs by sulforhodamine B assay
SN12C = assay: Growth inhibition of human SN12C cells at 10 uM after 48 hrs by sulforhodamine B assay
K562 = assay: Growth inhibition of human K562 cells at 10 uM after 48 hrs by sulforhodamine B assay
CAKI-1 = assay: Growth inhibition of human CAKI-1 cells at 10 uM after 48 hrs by sulforhodamine B assay
OVCAR-8 = assay: Growth inhibition of human OVCAR8 cells at 10 uM after 48 hrs by sulforhodamine B assay
SR = assay: Growth inhibition of human SR cells at 10 uM after 48 hrs by sulforhodamine B assay
HT-29 = assay: Growth inhibition of human HT-29 cells at 10 uM after 48 hrs by sulforhodamine B assay
U-251 = assay: Growth inhibition of human U251 cells at 10 uM after 48 hrs by sulforhodamine B assay
SNB-75 = assay: Growth inhibition of human SNB75 cells at 10 uM after 48 hrs by sulforhodamine B assay
A549 = assay: Growth inhibition of human A549/ATCC cells at 10 uM after 48 hrs by sulforhodamine B assay
SW-620 = assay: Growth inhibition of human SW620 cells at 10 uM after 48 hrs by sulforhodamine B assay
OVCAR-4 = assay: Growth inhibition of human OVCAR4 cells at 10 uM after 48 hrs by sulforhodamine B assay
MCF7 = assay: Growth inhibition of human MCF7 cells at 10 uM after 48 hrs by sulforhodamine B assay
NCI-H23 = assay: Growth inhibition of human NCI-H23 cells at 10 uM after 48 hrs by sulforhodamine B assay
ACHN = assay: Growth inhibition of human ACHN cells at 10 uM after 48 hrs by sulforhodamine B assay
Malme-3M = assay: Growth inhibition of human MALME-3M cells at 10 uM after 48 hrs by sulforhodamine B assay
NCI-H460 = assay: Growth inhibition of human NCI-H460 cells at 10 uM after 48 hrs by sulforhodamine B assay
TK-10 = assay: Growth inhibition of human TK10 cells at 10 uM after 48 hrs by sulforhodamine B assay
Hs-578T = assay: Growth inhibition of human Hs 578T cells at 10 uM after 48 hrs by sulforhodamine B assay
MDA-MB-231 = assay: Growth inhibition of human MDA-MB-231 cells at 10 uM after 48 hrs by sulforhodamine B assay
HCT-116 = assay: Growth inhibition of human HCT116 cells at 10 uM after 48 hrs by sulforhodamine B assay
RPMI-8226 = assay: Growth inhibition of human RPMI8226 cells at 10 uM after 48 hrs by sulforhodamine B assay
MOLT-4 = assay: Growth inhibition of human MOLT4 cells at 10 uM after 48 hrs by sulforhodamine B assay
NCI-H522 = assay: Growth inhibition of human NCI-H522 cells at 10 uM after 48 hrs by sulforhodamine B assay
SNB-19 = assay: Growth inhibition of human SNB19 cells at 10 uM after 48 hrs by sulforhodamine B assay
SK-OV-3 = assay: Growth inhibition of human SKOV3 cells at 10 uM after 48 hrs by sulforhodamine B assay
SK-MEL-5 = assay: Growth inhibition of human SK-MEL-5 cells at 10 uM after 48 hrs by sulforhodamine B assay
HOP-92 = assay: Growth inhibition of human HOP92 cells at 10 uM after 48 hrs by sulforhodamine B assay
IGROV-1 = assay: Growth inhibition of human IGROV1 cells at 10 uM after 48 hrs by sulforhodamine B assay
KM12 = assay: Growth inhibition of human KM12 cells at 10 uM after 48 hrs by sulforhodamine B assay
OVCAR-5 = assay: Growth inhibition of human OVCAR5 cells at 10 uM after 48 hrs by sulforhodamine B assay
LOX IMVI = assay: Growth inhibition of human LOXIMVI cells at 10 uM after 48 hrs by sulforhodamine B assay
NCI-H226 = assay: Growth inhibition of human NCI-H226 cells at 10 uM after 48 hrs by sulforhodamine B assay
UACC-62 = assay: Growth inhibition of human UACC62 cells at 10 uM after 48 hrs by sulforhodamine B assay
786-0 = assay: Growth inhibition of human 786-0 cells at 10 uM after 48 hrs by sulforhodamine B assay
RXF 393 = assay: Growth inhibition of human RXF393 cells at 10 uM after 48 hrs by sulforhodamine B assay
CCRF-CEM = assay: Growth inhibition of human CCRF-CEM cells at 10 uM after 48 hrs by sulforhodamine B assay
A498 = assay: Growth inhibition of human A498 cells at 10 uM after 48 hrs by sulforhodamine B assay
OVCAR-3 = assay: Growth inhibition of human OVCAR3 cells at 10 uM after 48 hrs by sulforhodamine B assay
EKVX = assay: Growth inhibition of human EKVX cells at 10 uM after 48 hrs by sulforhodamine B assay
M14 = assay: Growth inhibition of human M14 cells at 10 uM after 48 hrs by sulforhodamine B assay
SK-MEL-28 = assay: Growth inhibition of human SK-MEL-28 cells at 10 uM after 48 hrs by sulforhodamine B assay
DU-145 = assay: Growth inhibition of human DU145 cells at 10 uM after 48 hrs by sulforhodamine B assay
HL-60(TB) = assay: Growth inhibition of human HL-60(TB) cells at 10 uM after 48 hrs by sulforhodamine B assay

Measured: growth inhibition (GI)

O=C1/C(=C\c2ccc[nH]2)c2ccccc2N1c1c(Cl)cccc1Cl
inactive: all assays above
